Laboratory results as given in PMC5522078, “Discovery and characterization of small molecules targeting the DNA-binding ETS domain of ERG in prostate cancer” (Oncotarget, 2017).
Read-outs that look alike come from different tables or passages of the source.

Columns and labels:
RWPE-ERG cells = test: Real time cell migration (xCELLigence), RWPE-ERG; assay type: cell-based; conditions: 5 µM; compared to MOCK control
Description: Cell migration was monitored using CIM-16 migration plates via the xCELLigence platform (ACEA). FBS-supplemented media (160 μL) was added to the lower chamber of the plate and incubated at RT for 30 min. The upper chamber was then mounted and 30 μL of serum free media (SFM) was added to each well and left to equilibrate in the incubator for 1 h at 37°C. After the incubation, a background reading was taken for each well. […] Real time readings of cell index values were recorded initially every 5 min until the end of the experiment (48 hr). page 8: Supplementary Figure 4: VPC-18005 suppresses migration, but not growth of RWPE-1-ERG cells. (A) Cell viability (MTS) of ERG-expressing cells (RWPE-ERG) (closed circle) and non-ERG expressing cells (RWPE-MOCK (open square)) after treatment […] Impact on viability is presented as the mean ± SEM […] (B) RWPE-1-Mock or (C) […] The normalized cell index is a measure of the migration of the cells through the pores of the upper chamber and is used as the migration index. Dotted lines represent 1 standard deviation (SD) of the mean migration rate.

[1] = Compound solubility and stability (LC-PDA-MS); assay type: physicochemical
Description: This […] […] Data was analyzed using FlowJo Eppendorf tubes. Saturated PBS samples were further software (TreeStar, USA). […] After 24 h, plates were treated with vehicle control, […] and a Quattro Premier (Waters). […] […] diluting stocks (50 mM in DMSO) 1000x in Methanol (standard), PBS, or media. Resulting solutions were clarified by centrifugation and an aliquot of the supernatant was extracted with 2 volumes acetonitrile. VPC-18005 solubility determined as fraction remaining as quantified by LC-PDA-MS versus the methanol solution as standard.

ETS domain of ETV4 = molecular target: T1, ETS domain of ETV4 (Homo sapiens, UniProt P43268); test: Preliminary NMR spectroscopic experiments, ETV4; assay type: binding
T1 sequence (P43268 341-421 limits assumed): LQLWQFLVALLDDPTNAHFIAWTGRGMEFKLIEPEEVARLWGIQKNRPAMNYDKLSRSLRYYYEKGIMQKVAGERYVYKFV

PNT1B-ERG or VCaP cells = test: Zebrafish yolk sac dissemination (xenograft metastasis) assay; assay type: in vivo; conditions: 1 and 10 μM in water; 5 days; untreated 65 to 70%
Description: Research was carried in accordance with protocols compliant to the Canadian Council on Animal Care and with the approval of the Animal Care Committee at the University of British Columbia. The wildtype zebrafish strain was maintained in aquaria according to standard protocols. Embryos were generated by natural pair-wise matings and raised at 28.5°C on a 14 h light/10 h dark cycle in a 100 mm^2 petri dish containing aquarium water. Phenylthiourea (0.2 mM PTU, Sigma) was added to the embryos at 10 h post-fertilization (hpf) to prevent pigment formation. Yolk sac dissemination assay. PCa cell lines were fluorescently labelled the day before microinjection with 1.5 μM of CellTracker CM-Dil dye (Life Technologies) as per manufacturer's instructions. Wild-type embryos were dechorionated at 2 dpf. Following anaesthetization with tricane, approximately 50–70 cancer cells were microinjected into the yolk sac. Embryos were then transferred to 100 mm^2 plates that contained aquaria water with added PTU and VPC-18005, YK-4-279 or DMSO control. Embryos were visually assessed for presence of xenograph. […] Embryos were kept at 35°C for the duration of the experiment. Approximately, 50 fish were injected per cell line and metastasis was determined on Day 4 and 5 by observation using the Zeiss Axio Observer microscope (5X objective) controlled with Zen 2012 software. […]

PNT1B-ERG cells = test: Real time growth assay (Incucyte confluence); assay type: cell-based, human; conditions: 1, 5 or 15 µM; 168 h
Description: www.impactjournals.com/oncotarget/ Oncotarget Supplementary Materials
Discovery and characterization of small molecules targeting the DNA-binding ETS domain of ERG in prostate cancer […]
samples where less saturation of MS data is expected. This […]
and gives reasonable estimates when the use of MS […]
sulfoxide (DMSO) were diluted 1,000× into methanol
The (Gibco), then underwent APC BrdU Flow Kit protocol
Cells were analysed on a FACSCanto™
Data was analyzed using FlowJo
Eppendorf tubes. Saturated PBS samples were further software (TreeStar, USA). Biological replicates were diluted with an equal volume of PBS. Aliquots of these analysed statistically by Two-Way ANOVA. […]
the dark. Aliquots taken at later time points were vortex mixed for 1 h prior to sampling. MeOH and diluted PBS Proliferation/cell viability assay […]
were extracted with two volumes acetonitrile (ACN) and centrifuged at 20,000 g for 5 min.
After 24 h, plates were treated with vehicle control, […]
and a Quattro Premier (Waters).
2points/sec were collected with the PDA. The sampler expression datasets from PCa patients […]
represent the mean ± SEM of triplicate experiments. […]
post hoc test. […] The G0–G1 phase
Growth assay of PNT1B-ERG cells

ETS domain of PU.1 = ETS domain of PU.1 (Homo sapiens, UniProt P17947); test: Preliminary NMR spectroscopic experiments, PU.1; assay type: binding
VCaP cells [2] = test: MTS cell viability assay, VCaP; assay type: cell-based, human; conditions: 72 h
Description: 3-(4,5-dimethylthiazol-2-yl)-5-(3-carboxymethoxyp henyl)-2-(4-sulfophenyl)-2H-tetrazolium, inner salt (MTS). Cells were seeded at a density of 3000 cells per well (except VCaP at 20,000/well) in 100 μL of appropriate media in 96 well culture dishes. Twenty four hours later, 100 μL of medium containing vehicle control or compounds. Each treatment was prepared in triplicate. After a 72 h treatment, cellular viability was assessed using CellTiter 96 ® Aqueous One Solution Cell Proliferation Assay reagent (Promega) according to the manufacturer's instructions. Values were normalized to the DMSO control.

VCaP cells [3] = system: VCaP cells; design: method as in PMID 21559405; conditions: read-out: IC50 for cytotoxicity in VCaP cells; cited from earlier work

SMILES	Effect on RWPE-ERG cell migration (RWPE-ERG cells)	solubility at 1 h ([1]; cell culture media (RPMI + 5% charcoal stripped serum), plasma or biological fluid, kinetic from dmso stock, RPMI + 5% CSS, 50 mM DMSO stock diluted 1,000x) [µM]	Media solubility ([1]; media)	Stability in media (fraction remaining) ([1]; media, 3 days, RT) [%]	Interaction with the ETS domain of ETV4 (ETS domain of ETV4)	Percentage of fish with PNT1B-ERG or VCaP dissemination (PNT1B-ERG or VCaP cells)	Effect on proliferation / cell growth (real time cell analysis) (PNT1B-ERG cells)	Interaction with the ETS domain of PU.1 (ETS domain of PU.1)	Effect on cell viability (MTS), VCaP (VCaP cells [2]; 0.2–25 μM)	Media solubility [1]	Stability in media (fraction remaining) ([1]; 72 h) [%]	IC50 (VCaP cells [3]) [µM]	Doses with inhibition of cell viability (MTS), VCaP (VCaP cells [2]) [µM]
CC(C)c1ccc(C=N/N=C2\NC(=O)[C@@H](CC(=O)O)S2)cc1 (stereo in doubt) [VPC-18005, 2-((Z)-2-(((Z)-4-isopropylbenzylidene)hydrazono)-4-oxothiazolidin-5-yl)acetic acid]	moderate effect	> 50	soluble in media	93	interacts	20–30%	did not suppress proliferation or induce cell death	interacts	did not decrease viability	–	–	–	–
COc1ccc(C(=O)CC2(O)C(=O)Nc3c(Cl)ccc(Cl)c32)cc1 (stereo not drawn) [YK-4-279, reference compound]	–	–	–	–	–	40–60%	dose-dependent effect	–	–	soluble	60	10	≥ 5
